What all share (format): cell-based
Assay [1] has as its target Mer (phospho-Mer, MERTK-transfected 293A cells) (Homo sapiens (Human), UniProt Q12866). As to the kind of experiment: Mer autophosphorylation ELISA in transient transfected 293A cells (Example H). The conditions noted are these: cellular activity. On the procedure: 293A cells (Thermo Fisher #R70507) were seeded at 1.5×10^6 cells/well onto 100 mm dish (Greiner #664169), in DMEM (Thermo Fisher #11995-040) containing 10% FBS (Thermo Fisher #26140-079), 1% MEM NEAA (Thermo Fisher #11140-050), 1% GlutaMax (Thermo Fisher #35050-061), and 1% Penicillin Streptomycin (Thermo Fisher #15140-122). 293A cells were incubated at 37° C., 5% CO2 for 24 h and then transfected with […] MERTK DNA (Genecopoeia #EX-Z8208-M02) using TransIT LT1 transfection reagent (Mirus-Bio #MIR2305). After 24 h incubation, the transfected 293A cells were seeded at 1×10^5 cells/well onto 96-well plates (Corning #3904) in DMEM growth medium overnight. Test compounds were serially diluted to produce an 8-point dose curve in fresh serum-free medium to a final concentration of 0.3% DMSO (vehicle) and added to the cells and incubated for 1 h. Cells were then immediately lysed with 150 μL of cold 1× lysis buffer [20 mM Tris, 137 mM sodium chloride, 2 mM EDTA, 10% glycerol, 1% NP-40 alternative, 1 mM activated sodium orthovanadate, 1 mM PefaBloc SC (Sigma-Aldrich #11429868001), protease/phosphatase inhibitor tablet (Thermo Fisher #A32959)]. Lysates were clarified by centrifugation and 50 µL/well added in to the human phospho-Mer DuoSet IC ELISA (R&D Systems #DYC2579-2). Assay was performed according to manufacturer's instructions and sample phospho-Mer concentrations were extrapolated using human phospho-Mer control (R&D Systems #841793) as a standard. Positive control wells (100% activity) contained DMSO-treated cell lysates. Negative control wells (0% activity) contained reference inhibitor-treated cell lysates. IC50 values were calculated by nonlinear regression analysis using a 4-parameter logistic curve fit in ActivityBase XE (JDBS).

The target in assay [2] is KDR (phospho-KDR, VEGF165-stimulated HUVEC cells) (Homo sapiens (Human), UniProt P35968). As to the kind of experiment: KDR autophosphorylation ELISA in HUVEC cells (Example G). The conditions noted are these: cellular activity. On the procedure: Human umbilical vein endothelial cells or HUVEC (Lonza #C2519A) were seeded at 2×10^4 cells/well onto 96-well plates (Corning #3904), in EGM-2 growth medium (Lonza #CC-3162) containing 1% Penicillin Streptomycin (Thermo Fisher #15140-122). HUVEC cells were incubated at 37° C., 5% CO2 for 24 h and then starved for 24 h in serum-free EBM-2 basal medium (Lonza #CC-3156) containing 1% Penicillin Streptomycin. Test compounds were serially diluted to produce an 8-point dose curve in fresh serum-free medium to a final concentration of 0.3% DMSO (vehicle) and added to the cells and incubated for 1 h. Cells were then stimulated with 100 ng/mL recombinant human VEGF165 (R&D Systems #293-VE-500) for 5 min, washed with cold PBS, and immediately lysed with […] of cold 1× lysis buffer [20 mM Tris, 137 mM sodium chloride, 2 mM EDTA, 10% glycerol, 1% NP-40 alternative, 1 mM activated sodium orthovanadate, 1 mM PefaBloc SC (Sigma-Aldrich #11429868001), protease/phosphatase inhibitor tablet (Thermo Fisher #A32959)]. Lysates were collected and 100 μL/well added into the human phospho-KDR DuoSet IC ELISA (R&D Systems #DYC1766-2). Assay was performed according to manufacturer's instructions and sample phospho-KDR concentrations were extrapolated using human phospho-KDR control (R&D Systems #841421) as a standard. Positive control wells (100% activity) contained VEGF165-stimulated, DMSO-treated cell lysates. Negative control wells (0% activity) contained non-stimulated cell lysates. IC50 values were calculated by nonlinear regression analysis using a 4-parameter logistic curve fit in ActivityBase XE (IDBS).
Chain of KDR (phospho-KDR, VEGF165-stimulated HUVEC cells) (P35968 20-1356): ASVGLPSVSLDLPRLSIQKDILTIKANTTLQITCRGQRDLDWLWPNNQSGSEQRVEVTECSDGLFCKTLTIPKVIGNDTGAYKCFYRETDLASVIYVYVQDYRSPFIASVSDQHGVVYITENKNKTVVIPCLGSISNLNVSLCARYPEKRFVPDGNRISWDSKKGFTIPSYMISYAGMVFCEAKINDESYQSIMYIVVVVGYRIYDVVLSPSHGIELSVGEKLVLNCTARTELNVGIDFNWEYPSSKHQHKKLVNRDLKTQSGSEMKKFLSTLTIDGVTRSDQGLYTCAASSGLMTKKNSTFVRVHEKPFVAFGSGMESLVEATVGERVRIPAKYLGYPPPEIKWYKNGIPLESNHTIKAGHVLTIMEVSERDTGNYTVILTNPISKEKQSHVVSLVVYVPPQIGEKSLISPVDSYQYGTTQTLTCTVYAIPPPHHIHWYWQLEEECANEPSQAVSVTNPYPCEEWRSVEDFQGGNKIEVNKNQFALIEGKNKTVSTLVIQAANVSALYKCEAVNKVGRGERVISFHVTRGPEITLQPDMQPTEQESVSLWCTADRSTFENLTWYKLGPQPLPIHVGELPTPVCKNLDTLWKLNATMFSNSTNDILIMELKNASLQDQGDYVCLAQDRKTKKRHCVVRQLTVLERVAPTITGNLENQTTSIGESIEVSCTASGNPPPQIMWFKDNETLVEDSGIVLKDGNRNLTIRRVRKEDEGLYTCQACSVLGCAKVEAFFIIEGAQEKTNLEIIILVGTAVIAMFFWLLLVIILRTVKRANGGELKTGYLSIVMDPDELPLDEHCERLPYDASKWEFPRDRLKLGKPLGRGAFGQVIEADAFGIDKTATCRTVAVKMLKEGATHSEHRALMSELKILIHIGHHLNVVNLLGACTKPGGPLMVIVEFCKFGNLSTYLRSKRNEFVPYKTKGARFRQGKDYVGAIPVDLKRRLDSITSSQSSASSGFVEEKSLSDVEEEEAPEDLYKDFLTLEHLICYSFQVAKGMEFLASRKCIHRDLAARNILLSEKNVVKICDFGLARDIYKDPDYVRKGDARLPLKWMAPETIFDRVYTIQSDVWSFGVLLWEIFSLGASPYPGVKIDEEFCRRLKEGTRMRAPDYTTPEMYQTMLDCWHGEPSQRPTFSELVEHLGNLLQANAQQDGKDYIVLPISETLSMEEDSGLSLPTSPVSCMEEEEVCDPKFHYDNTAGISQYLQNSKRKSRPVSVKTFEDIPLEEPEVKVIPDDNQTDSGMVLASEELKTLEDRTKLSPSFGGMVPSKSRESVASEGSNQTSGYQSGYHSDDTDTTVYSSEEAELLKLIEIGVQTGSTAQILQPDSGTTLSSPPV

For assay [3], the target named is Met (phospho-Met, HGF-stimulated PC-3 prostate cancer cells) (Homo sapiens (Human), UniProt P08581). As to the kind of experiment: Met autophosphorylation ELISA in PC-3 cells (Example F). The conditions noted are these: cellular activity, read-out: c-Met IC50. On the procedure:
PC-3 prostate cancer cells (ATCC #CRL-1435) were seeded at 4×10^4 cells/well onto 24-well plates (Greiner #662165), in DMEM (Thermo Fisher #11995-040) containing 10% FBS (Thermo Fisher #26140-079), 1% MEM NEAA (Thermo Fisher #11140-050), 1% GlutaMax (Thermo Fisher #35050-061), and 1% Penicillin Streptomycin (Thermo Fisher #15140-122). PC-3 cells were incubated at 37° C., 5% CO2 for 24 h and then starved for 3 h in serum-free medium. Test compounds were serially diluted to produce an 8-point dose curve in fresh serum-free medium to a final concentration of 0.3% DMSO (vehicle) and added to the cells and incubated for 1 h. Cells were then stimulated with 100 ng/mL recombinant human HGF (R&D Systems #294-HG-250) for 10 min, washed with cold PBS, and immediately lysed with […] of cold 1× lysis buffer [20 mM Tris, 137 mM sodium chloride, 2 mM EDTA, 10% glycerol, 1% NP-40 alternative, 1 mM activated sodium orthovanadate, 1 mM PefaBloc SC (Sigma-Aldrich #11429868001), protease/phosphatase inhibitor tablet (Thermo Fisher #A32959)]. Lysates were clarified by centrifugation and 100 μL/well added into the PathScan phospho-Met (panTyr) Sandwich ELISA (Cell Signaling Technology #7333). Assay was performed according to manufacturer's instructions. Positive control wells (100% activity) contained HGF-stimulated, DMSO-treated cell lysates. Negative control wells (0% activity) contained HGF-stimulated, reference inhibitor-treated cell lysates. IC50 values were calculated by nonlinear regression analysis using a 4-parameter logistic curve fit in ActivityBase XE (IDBS).

Where [4] appears, read: Mer autophosphorylation ELISA in transient transfected 293A cells.
Where [5] appears, read: KDR autophosphorylation ELISA in HUVEC cells.
The mark [6] stands for this setting: Met autophosphorylation ELISA in PC-3 cells.

Where two headings read alike, the source gives them in different places.

Chain of Mer (phospho-Mer, MERTK-transfected 293A cells) (Q12866 21-999): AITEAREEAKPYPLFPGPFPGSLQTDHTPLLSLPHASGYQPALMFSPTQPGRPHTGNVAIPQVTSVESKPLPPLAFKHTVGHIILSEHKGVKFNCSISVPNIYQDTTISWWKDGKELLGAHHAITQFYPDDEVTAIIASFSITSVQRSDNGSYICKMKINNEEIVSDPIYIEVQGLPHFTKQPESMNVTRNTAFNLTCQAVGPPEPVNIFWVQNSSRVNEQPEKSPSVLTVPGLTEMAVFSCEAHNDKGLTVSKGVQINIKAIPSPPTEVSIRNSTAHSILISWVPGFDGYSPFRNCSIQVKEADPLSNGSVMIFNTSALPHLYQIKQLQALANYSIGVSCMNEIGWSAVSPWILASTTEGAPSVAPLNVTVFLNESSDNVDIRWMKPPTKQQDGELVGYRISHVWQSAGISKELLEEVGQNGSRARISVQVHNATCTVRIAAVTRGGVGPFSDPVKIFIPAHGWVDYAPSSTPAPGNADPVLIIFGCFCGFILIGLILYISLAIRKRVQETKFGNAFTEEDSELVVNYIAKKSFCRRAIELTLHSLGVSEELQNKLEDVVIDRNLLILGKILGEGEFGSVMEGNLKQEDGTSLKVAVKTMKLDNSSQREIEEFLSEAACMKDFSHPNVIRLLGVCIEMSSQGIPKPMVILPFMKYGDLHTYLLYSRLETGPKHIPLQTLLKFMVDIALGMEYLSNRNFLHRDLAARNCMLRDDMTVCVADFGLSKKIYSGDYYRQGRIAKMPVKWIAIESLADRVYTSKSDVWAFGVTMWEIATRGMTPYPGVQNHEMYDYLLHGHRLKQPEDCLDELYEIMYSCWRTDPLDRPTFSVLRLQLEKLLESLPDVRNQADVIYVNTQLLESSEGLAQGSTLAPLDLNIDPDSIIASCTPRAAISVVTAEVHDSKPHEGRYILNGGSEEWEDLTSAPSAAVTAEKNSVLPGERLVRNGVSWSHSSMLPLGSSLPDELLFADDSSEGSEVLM
Chain of Met (phospho-Met, HGF-stimulated PC-3 prostate cancer cells) (P08581 25-1390): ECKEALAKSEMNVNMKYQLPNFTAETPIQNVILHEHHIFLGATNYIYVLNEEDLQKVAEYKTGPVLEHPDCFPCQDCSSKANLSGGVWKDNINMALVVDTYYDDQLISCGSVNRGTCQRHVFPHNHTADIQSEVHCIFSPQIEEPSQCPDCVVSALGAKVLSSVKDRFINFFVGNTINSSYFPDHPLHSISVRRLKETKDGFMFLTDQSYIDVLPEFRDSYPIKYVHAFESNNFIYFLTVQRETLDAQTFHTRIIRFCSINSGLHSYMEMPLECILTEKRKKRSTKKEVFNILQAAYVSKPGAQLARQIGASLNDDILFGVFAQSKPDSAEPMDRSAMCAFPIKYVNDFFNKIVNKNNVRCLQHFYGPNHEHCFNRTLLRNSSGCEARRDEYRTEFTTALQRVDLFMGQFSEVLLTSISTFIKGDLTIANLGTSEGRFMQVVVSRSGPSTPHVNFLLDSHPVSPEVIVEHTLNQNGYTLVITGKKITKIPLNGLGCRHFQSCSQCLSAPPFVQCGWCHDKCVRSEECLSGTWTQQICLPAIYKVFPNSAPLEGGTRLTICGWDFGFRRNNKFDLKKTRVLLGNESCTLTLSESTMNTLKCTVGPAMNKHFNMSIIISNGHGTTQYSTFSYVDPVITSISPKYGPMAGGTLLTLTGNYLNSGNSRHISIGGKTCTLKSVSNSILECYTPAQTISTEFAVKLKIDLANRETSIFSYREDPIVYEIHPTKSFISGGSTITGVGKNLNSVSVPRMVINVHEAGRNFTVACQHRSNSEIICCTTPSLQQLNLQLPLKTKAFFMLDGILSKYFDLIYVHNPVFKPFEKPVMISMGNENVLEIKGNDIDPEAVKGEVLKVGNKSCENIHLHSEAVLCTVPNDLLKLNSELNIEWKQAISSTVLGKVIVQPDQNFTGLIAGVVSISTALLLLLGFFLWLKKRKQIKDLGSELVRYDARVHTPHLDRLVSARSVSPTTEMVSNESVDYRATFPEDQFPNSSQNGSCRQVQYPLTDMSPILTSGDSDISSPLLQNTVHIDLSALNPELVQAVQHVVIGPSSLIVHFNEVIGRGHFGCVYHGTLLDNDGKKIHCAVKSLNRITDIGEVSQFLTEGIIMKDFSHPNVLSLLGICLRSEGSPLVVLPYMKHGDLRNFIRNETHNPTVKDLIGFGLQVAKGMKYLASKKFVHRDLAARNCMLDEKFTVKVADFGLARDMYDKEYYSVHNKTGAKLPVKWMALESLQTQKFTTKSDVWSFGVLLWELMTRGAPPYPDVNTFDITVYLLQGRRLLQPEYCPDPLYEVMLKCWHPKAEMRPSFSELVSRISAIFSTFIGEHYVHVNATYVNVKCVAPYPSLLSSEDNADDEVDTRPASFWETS

With `COc1cc2nccc(Oc3cc(F)c(NC(=O)c4c(C)nc(C)c(-c5ccc(F)cc5F)c4O)cc3F)c2nc1OC` [Compound 777, 5-(2,4-difluorophenyl)-N-[4-[(6,7-dimethoxy-1,5-naphthyridin-4-yl)oxy]-2,5-difluorophenyl]-4-hydroxy-2,6-dimethylpyridine-3-carboxamide], the IC50 in assay [1] (setting [4]), in assay [2] (setting [5]) and in assay [3] (setting [6]) was less than 100 nM each time.

Turning to `COCc1nc(C)c(-c2ccc(F)cc2F)c(O)c1C(=O)Nc1cc(F)c(Oc2ccnc3cc(OC)c(OC)nc23)cc1F` [Compound 778, 5-(2,4-difluorophenyl)-N-[4-[(6,7-dimethoxy-1,5-naphthyridin-4-yl)oxy]-2,5-difluorophenyl]-4-hydroxy-2-(methoxymethyl)-6-methylpyridine-3-carboxamide], the IC50 in assay [1] (setting [4]), in assay [2] (setting [5]) and in assay [3] (setting [6]) was less than 100 nM in each case.

Take `COc1cnc2c(Oc3cc(F)c(NC(=O)c4c(C)nc(C)c(-c5ccc(F)cc5F)c4O)cc3F)ccnc2c1` [Compound 779, N-[2,5-difluoro-4-[(7-methoxy-1,5-naphthyridin-4-yl)oxy]phenyl]-5-(2,4-difluorophenyl)-4-hydroxy-2,6-dimethylpyridine-3-carboxamide]: the IC50 in assay [1] (setting [4]), in assay [2] (setting [5]) and in assay [3] (setting [6]) was less than 100 nM each time.

`CCOCc1nc(C)c(-c2ccc(F)cc2C)c(O)c1C(=O)Nc1ccc(Oc2ccnc3cc(OC)c(OC)nc23)cc1` [Compound 780, N-[4-[(6,7-dimethoxy-1,5-naphthyridin-4-yl)oxy]phenyl]-2-(ethoxymethyl)-5-(4-fluoro-2-methylphenyl)-4-hydroxy-6-methylpyridine-3-carboxamide]: the IC50 in assay [1] (setting [4]) was less than 100 nM; in assay [2] (setting [5]), 100 to 300 nM; in assay [3] (setting [6]), less than 100 nM.

For `CCOCc1nc(C)c(-c2ccc(F)cc2C)c(O)c1C(=O)Nc1ccc(Oc2ccnc3cc(OC)cnc23)cc1` [Compound 781, 2-(ethoxymethyl)-5-(4-fluoro-2-methylphenyl)-4-hydroxy-N-[4-[(7-methoxy-1,5-naphthyridin-4-yl)oxy]phenyl]-6-methylpyridine-3-carboxamide], the 50% inhibitory concentration (IC50) in assay [1] (setting [4]) was less than 100 nM; in assay [2] (setting [5]), more than 300 nM; in assay [3] (setting [6]), less than 100 nM.

In the case of `COc1cc2nccc(Oc3ccc(NC(=O)c4c(C)n(CC(F)F)cc(-c5ccc(F)cc5C)c4=O)cc3F)c2nc1OC` [Compound 786, 1-(2,2-difluoroethyl)-N-[4-[(6,7-dimethoxy-1,5-naphthyridin-4-yl)oxy]-3-fluorophenyl]-5-(4-fluoro-2-methylphenyl)-2-methyl-4-oxopyridine-3-carboxamide], the concentration for half-maximal inhibition (IC50) in assay [1] (setting [4]), in assay [2] (setting [5]) and in assay [3] (setting [6]) was less than 100 nM each time.

Consider `COc1cc2nccc(Oc3ccc(NC(=O)c4cc(C(C)O)c(C)n(-c5ccc(F)cc5)c4=O)cc3F)c2nc1OC` (stereo not drawn) [Compound 787, N-[4-[(6,7-dimethoxy-1,5-naphthyridin-4-yl)oxy]-3-fluorophenyl]-1-(4-fluorophenyl)-5-(1-hydroxyethyl)-6-methyl-2-oxopyridine-3-carboxamide], for which the figures for the IC50 in assay [1] (setting [4]), in assay [2] (setting [5]) and in assay [3] (setting [6]) were less than 100 nM, more than 300 nM and less than 100 nM, respectively.

As to `COc1cc2nccc(Oc3ccc(NC(=O)c4c(C)n(CC(F)F)cc(-c5ccc(F)cc5)c4=O)cc3)c2nc1OC` [Compound 788, 1-(2,2-difluoroethyl)-N-[4-[(6,7-dimethoxy-1,5-naphthyridin-4-yl)oxy]phenyl]-5-(4-fluorophenyl)-2-methyl-4-oxopyridine-3-carboxamide], the IC50 is less than 100 nM in assay [1] (setting [4]), 100 to 300 nM in assay [2] (setting [5]) and less than 100 nM in assay [3] (setting [6]).

Take `COc1cc2nccc(Oc3ccc(NC(=O)c4c(C)n(CC(F)(F)F)cc(-c5ccc(F)cc5)c4=O)cc3)c2nc1OC` [Compound 789, N-[4-[(6,7-dimethoxy-1,5-naphthyridin-4-yl)oxy]phenyl]-5-(4-fluorophenyl)-2-methyl-4-oxo-1-(2,2,2-trifluoroethyl)pyridine-3-carboxamide]: the IC50 in assay [1] (setting [4]) is less than 100 nM; in assay [2] (setting [5]), more than 300 nM; in assay [3] (setting [6]), less than 100 nM.

Consider `COc1cnc2c(Oc3ccc(NC(=O)c4c(C)n(CC(F)(F)F)cc(-c5ccc(F)cc5)c4=O)cc3F)ccnc2c1` [Compound 790, N-[3-fluoro-4-[(7-methoxy-1,5-naphthyridin-4-yl)oxy]phenyl]-5-(4-fluorophenyl)-2-methyl-4-oxo-1-(2,2,2-trifluoroethyl)pyridine-3-carboxamide], for which the figures for the IC50 in assay [1] (setting [4]), in assay [2] (setting [5]) and in assay [3] (setting [6]) were less than 100 nM, more than 300 nM and less than 100 nM, respectively.

Consider `COc1cc2nccc(Oc3ccc(NC(=O)c4c(C)n(C)c(C)c(-c5ccc(F)cc5C)c4=O)cc3)c2nc1OC` [Compound 791, N-[4-[(6,7-dimethoxy-1,5-naphthyridin-4-yl)oxy]phenyl]-5-(4-fluoro-2-methylphenyl)-1,2,6-trimethyl-4-oxopyridine-3-carboxamide], for which the IC50 was less than 100 nM in assay [1] (setting [4]), more than 300 nM in assay [2] (setting [5]) and less than 100 nM in assay [3] (setting [6]).

As for `COc1cnc2c(Oc3ccc(NC(=O)c4c(C)n(CC(F)F)cc(-c5ccc(F)c(F)c5)c4=O)cc3F)ccnc2c1` [Compound 817, 1-(2,2-difluoroethyl)-5-(3,4-difluorophenyl)-N-[3-fluoro-4-[(7-methoxy-1,5-naphthyridin-4-yl)oxy]phenyl]-2-methyl-4-oxopyridine-3-carboxamide], the values for the half-maximal inhibitory concentration (IC50) in assay [1] (transfected 293A cells), in assay [2] (HUVEC cells) and in assay [3] (PC-3 cells) were less than 100 nM, more than 300 nM and less than 100 nM, respectively.

With `COc1cnc2c(Oc3ccc(NC(=O)c4c(C)n(C)c(C)c(-c5ccc(F)cc5OC)c4=O)cc3F)ccnc2c1` [Compound 818, N-[3-fluoro-4-[(7-methoxy-1,5-naphthyridin-4-yl)oxy]phenyl]-5-(4-fluoro-2-methoxyphenyl)-1,2,6-trimethyl-4-oxopyridine-3-carboxamide], the IC50 is less than 100 nM in assay [1] (transfected 293A cells), more than 300 nM in assay [2] (HUVEC cells) and less than 100 nM in assay [3] (PC-3 cells).

These data come from patent US12371428B2 (Exelixis, Inc., priority 2019, dated 2025).
